Experimental data from US12459951B2, “Compounds that interact with RAS superfamily proteins for treatment of cancers, inflammatory diseases, rasopathies, and fibrotic disease” (SHY Therapeutics, LLC, priority 2022, dated 2025).

How the values were obtained:
Erk1/2 phosphorylation = assay: Erk1/2 Phosphorylation Assay (western blot), Panc-1; type: cell-based, human; conditions: at 10 μM, * = activation
Method: Protocol for Western Erk1/2 Cell-Based Phosphorylation Assay
This assay is referred to as the “Erk1/2 Phosphorylation Assay” throughout this application.
(§1) Cell lines: Human tumor-derived pancreatic cancer cell line Panc-1 (expressing KRas G12D mutant) was purchased from American Type Culture Collection and grown in complete DMEM-High Glucose medium, supplemented with penicillin (100 U/mL), streptomycin (100 μg/mL), and 10% heat-inactivated FBS at 37° C. in a humidified incubator with 5% CO2.
(§2) Method 1: Cells were plated at 350000 cells/well density in a 12-well plate, allowed 3 hours to adhere to the plate, then starved in the appropriate medium in the presence of 0.5% FBS overnight. The small molecules to be tested were added to the cells in the final concentration of 10 μM in the presence of 0.3% DMSO for 6 hours incubation at 37° C. For IC50 value determination, serial dilutions of compounds were added to cells under the same conditions. Next, cells were stimulated with 1.5 ng/ml EGF for 15 minutes then cells were lysed with lysis buffer containing 1% Triton X-100, EDTA, and Halt™ Protease & Phosphatase Inhibitor Cocktail (Thermo Scientific). Protein concentration was assessed by BCA protein assay (Thermo Scientific). Phosphorylation level of Erk1/2 was determined by western blot.
(§3) Method 2: Cells were plated at 350000 cells/well density in a 12-well plate in 10% FBS. The next day small molecules to be tested were added to the cells in the final concentration of 10 μM in the presence of 0.3% DMSO for 6 hours incubation at 37° C. For IC50 value determination, serial dilutions of compounds were added to cells under the same conditions. Next, cells were lysed with lysis buffer containing 1% Triton X-100, EDTA, and Halt™ Protease & Phosphatase Inhibitor Cocktail (Thermo Scientific). Protein concentration was assessed by BCA protein assay (Thermo Scientific). Phosphorylation level of Erk1/2 was determined by western blot.
(§4) Western blot protocol: Equal amounts of protein (15-50 μg) were separated by SDS-PAGE and transferred to nitrocellulose membranes (Invitrogen by Thermo Fisher Scientific). The membrane was stained with Ponceau S Stain (Boston BioProducts) to verify uniform protein loading. Membranes were blocked with 10% milk and phosphorylation levels of Erk1/2 were assessed by incubating overnight at 4° C. with anti-phospho-p44/42 (Thr202/Tyr204) antibody (Cell Signaling) followed by HRP-conjugated secondary antibody (Jackson Immunoresearch, West Grove, PA). Bands were incubated in Amersham ECL Prime Western Blotting Detection Reagent (GE Healthcare) and visualized using the ChemiDoc MP imaging system (Bio-Rad).

TNF-alpha = TNF-alpha Quantification Assay (ELISA), LPS-stimulated RAW 264.7; type: cell-based; conditions: Mus musculus, RAW264.7; at 10 μM; read-out: TNFα: % inh.
IL6 = assay: IL-6 Quantification Assay (ELISA), LPS-stimulated RAW 264.7; type: cell-based; parameters: inhibition: dose or concentration left out as unconfirmed; conditions: Mus musculus, RAW264.7; read-out: IL-6: % inh.
Akt phosphorylation = assay: Akt Phosphorylation Assay (western blot), Panc-1; type: cell-based, human; conditions: at 10 μM, * = activation
Method: Protocol for Western Akt Cell-Based Phosphorylation Assay
This assay is referred to as the “Akt Phosphorylation Assay” throughout this application.
as §1, with “Human” for “Cell lines: Human”, “Glucose” for “Glucose medium,”
as §2, with “C.” for “C. For IC50 value determination, serial dilutions of compounds were added to cells under the same conditions.”, “Akt” for “Erk1/2”
as §3, with “Akt” for “Erk1/2”
as §4, with “Akt” for “Erk1/2”, “anti-phospho-Akt (Ser473)” for “anti-phospho-p44/42 (Thr202/Tyr204)”

Row | SMILES | % inh of Erk1/2 phosphorylation in Panc-1 (Erk1/2 phosphorylation) | inhibition at 10 µM (TNF-alpha) | inhibition (IL6) | % inh of Akt phosphorylation in Panc-1 (Akt phosphorylation)
1 | Cc1c(-c2ccn(C3CC3)n2)cn2nc(-c3nccn3C)nc(Nc3ccccn3)c12 [Compound 143, 6-(1-Cyclopropyl-1H-pyrazol-3-yl)-5-methyl-2-(1-methyl-1H-imidazol-2-yl)-N-(pyridin-2-yl)pyrrolo[2,1-f][1,2,4]triazin-4-amine] | D* (85-100% activation) | 50 to 74% | 75 to 100% | D* (85-100% activation)
2 | Cc1c(-c2ccn(C(C)C)n2)cn2nc(-c3nccn3C)nc(Nc3nccc(OCCN(C)C)n3)c12 [Compound 96, N-(4-(2-(Dimethylamino)ethoxy)pyrimidin-2-yl)-6-(1-isopropyl-1H-pyrazol-3-yl)-5-methyl-2-(1-methyl-1H-imidazol-2-yl)pyrrolo[2,1-f][1,2,4]triazin-4-amine] | 0 (0% inhibition) | 0% | 50 to 74% | D* (85-100% activation)
3 | Cc1c(-c2ccn(C)n2)cn2nc(-c3nccn3C)nc(Nc3cc(OC4CC4)ccn3)c12 [Compound 126, N-(4-Cyclopropoxypyridin-2-yl)-5-methyl-2-(1-methyl-1H-imidazol-2-yl)-6-(1-methyl-1H-pyrazol-3-yl)pyrrolo[2,1-f][1,2,4]triazin-4-amine] | D* (85-100% activation) | 0% | 25 to 49% | D* (85-100% activation)
4 | COc1cc(Nc2nc(-c3nccn3C)nn3cc(-c4ccn(C5CC5)n4)c(C)c23)ncn1 [Compound 135, 6-(1-Cyclopropyl-1H-pyrazol-3-yl)-N-(6-methoxypyrimidin-4-yl)-5-methyl-2-(1-methyl-1H-imidazol-2-yl)pyrrolo[2,1-f][1,2,4]triazin-4-amine] | D* (85-100% activation) | 1 to 24% | 25 to 49% | D* (85-100% activation)
5 | Cc1c(-c2ccn(C(C)C)n2)cn2nc(-c3ccccn3)nc(O)c12 [Compound 8, 6-(1-Isopropyl-1H-pyrazol-3-yl)-5-methyl-2-(pyridin-2-yl)pyrrolo[2,1-f][1,2,4]triazin-4-ol] | 0 (0% inhibition) | 0% | 0% | 0 (0% inhibition)
6 | Cc1c(-c2ccn(C)n2)cn2nc(-c3nccn3C)nc(Nc3cnccn3)c12 [Compound 120, 5-Methyl-2-(1-methyl-1H-imidazol-2-yl)-6-(1-methyl-1H-pyrazol-3-yl)-N-(pyrazin-2-yl)pyrrolo[2,1-f][1,2,4]triazin-4-amine] | C* (46-84% activation) | 1 to 24% | 25 to 49% | B* (26-49% activation)
7 | COc1cc(-c2cn3nc(-c4nccn4C)nc(N[C@H]4C[C@@H](OC)C4)c3c2C)ccn1 [Compound 162, N-((1s,3s)-3-Methoxycyclobutyl)-6-(2-methoxypyridin-4-yl)-5-methyl-2-(1-methyl-1H-imidazol-2-yl)pyrrolo[2,1-f][1,2,4]triazin-4-amine] | A (1-25% inhibition) | 25 to 49% | 25 to 49% | B (26-49% inhibition)
8 | Cc1c(-c2ccn(C)n2)cn2nc(-c3nccn3C)nc(Nc3ccn(C4CC4)n3)c12 [Compound 111, N-(1-Cyclopropyl-1H-pyrazol-3-yl)-5-methyl-2-(1-methyl-1H-imidazol-2-yl)-6-(1-methyl-1H-pyrazol-3-yl)pyrrolo[2,1-f][1,2,4]triazin-4-amine] | A* (1-25% activation) | 50 to 74% | 75 to 100% | D* (85-100% activation)
9 | COc1cc(Nc2nc(-c3nccn3C)nn3cc(-c4ccccn4)c(C)c23)ncn1 [Compound 94, N-(6-Methoxypyrimidin-4-yl)-5-methyl-2-(1-methyl-1H-imidazol-2-yl)-6-(pyridin-2-yl)pyrrolo[2,1-f][1,2,4]triazin-4-amine] | C* (46-84% activation) | 25 to 49% | 50 to 74% | D* (85-100% activation)
10 | COc1cnc(Nc2nc(-c3nccn3C)nn3cc(-c4ccn(C)n4)c(C)c23)nc1.Cl [Compound 117, N-(5-Methoxypyrimidin-2-yl)-5-methyl-2-(1-methyl-1H-imidazol-2-yl)-6-(1-methyl-1H-pyrazol-3-yl)pyrrolo[2,1-f][1,2,4]triazin-4-amine hydrochloride salt] | B (26-49% inhibition) | 1 to 24% | 1 to 24% | B (26-49% inhibition)
11 | COc1ccnc(Nc2nc(-c3nccn3C)nn3cc(-c4ccn(C)n4)c(C)c23)n1.Cl [Compound 114, N-(4-Methoxypyrimidin-2-yl)-5-methyl-2-(1-methyl-1H-imidazol-2-yl)-6-(1-methyl-1H-pyrazol-3-yl)pyrrolo[2,1-f][1,2,4]triazin-4-amine hydrochloride salt] | B* (26-49% activation) | 50 to 74% | 75 to 100% | D* (85-100% activation)
12 | Cc1c(-c2ccn(C)n2)cn2nc(-c3nccn3C)nc(Nc3cc(OC(C)C)ccn3)c12 [Compound 136, N-(4-Isopropoxypyridin-2-yl)-5-methyl-2-(1-methyl-1H-imidazol-2-yl)-6-(1-methyl-1H-pyrazol-3-yl)pyrrolo[2,1-f][1,2,4]triazin-4-amine] | D* (85-100% activation) | 1 to 24% | 25 to 49% | D* (85-100% activation)
13 | COc1ccnc(Nc2nc(-c3nccn3C)nn3cc(-c4ccn(C(F)F)n4)c(C)c23)n1 [Compound 95, 6-(1-(Difluoromethyl)-1H-pyrazol-3-yl)-N-(4-methoxypyrimidin-2-yl)-5-methyl-2-(1-methyl-1H-imidazol-2-yl)pyrrolo[2,1-f][1,2,4]triazin-4-amine] | D* (85-100% activation) | 1 to 24% | 1 to 24% | D* (85-100% activation)
